Experiments:
MEDI-524 (Numax™) = test: Binding ELISA of F-peptides; details: peptide coated on plate
Procedure: Based in part upon the results of the MARM analysis above, F peptides were synthesized (done by AnaSpec, Inc. San Jose, Calif.). Each well of the assay plate was coated with […] of […] of a particular soluble RSV F-Peptide overnight at 2-8° C. After the plate was aspirated and washed with PBS/0.05% Tween-20 buffer, it was blocked by incubating with PBS/0.05% Tween-20/0.5% BSA buffer for one hour at ambient temperature. The plate was washed and MEDI-524 standard curve samples, test samples, MEDI-524 Reference Standard, and negative control were added to the washed plate. Following a one-hour incubation at ambient temperature, the plate was washed, and […] of a goat anti-human IgG-HRP (horseradish peroxidase) at 1:16,000 dilution was added to the plate. After washing, […] of 3,3′,5,5′-tetramethylbenzidine (TMB) substrate was then added to the plate and incubated at ambient temperature protected from light for 10 minutes. The enzymatic reaction was stopped by adding […] of 2N H2SO4, and the absorbance at 450 nm was measured using a microplate reader. […] After meeting all system suitability requirements, as well as meeting the criteria of the parallelism test, the ED50 ratio of the test sample to Reference Standard was calculated, and the results were expressed as a percentage of the Reference Standard binding activity. […]

MEDI-524 Mab = test: Isothermal titration calorimetry (ITC) of F peptides with MEDI-524 Mab; format: binding; details: 25 mM His, pH 6, 10° C.
Text: Isothermal Titration calorimetry assays (ITC) have been described (see, for example, Heerklotz H et al., Biophysical Journal, May 1999). Molecular interactions are defined by stoichiometry and a few thermodynamic parameters. All binding reactions are associated with the absorption or generation of heat. Therefore calorimetry is emerging as a premier tool for the characterisation of interactions of biological macromolecules. ITC is the only method that measures equilibrium constants, enthalpy and entropy in one single experiment. If the experiment is performed at different temperatures the important parameter, the heat capacity change, can be determined. ITC has become a standard method for investigating the binding of ligands to receptor molecules. Accordingly, ligands are mixed with receptors, and the subsequent heats of incorporation (or binding) are measured.
To evaluate the binding properties of the wild-type peptide (SEQ ID NO.28) to Numax™/MEDI-524 by using the ITC technique. The MEDI-524 Mab was titrated with SEQ ID NO.28 in the basis buffer 25 mM His, pH 6 at 10° C. SEQ ID NO.28: (MW=2732.14, no W, Y, or C). A working solution of 55 μM was prepared by diluting 30 μL of a 5 mg/mL peptide solution with 970 μL, of 25 mM His, pH 6 buffer to be used for the ITC titrations. A 1.15 μM (0.1706 mg/ml) working solution of MEDI-524 was used for the experiments (MW 148400, A280=1.47). […]

Substance	Binding to Numax™ compared with wild-type F protein epitope (SEQ ID NO. 1) (MEDI-524 (Numax™))	binding strength lower compared to the SEQ ID NO.24 peptide (MEDI-524 Mab)
F peptide with a histidine at position 262: F peptide with a histidine at position 262; SEQ ID number not stated (SEQ ID No: 13, 25 and 26 carry it) (NSELLSLIHDMPITNDQKKLMSNN)	more tightly	–
NSELLSLINDMPITNDQKKLMSNN-NH2 [SEQ ID NO.28]	–	~3 orders of magnitude
